Source: BindingDB's records for PubMed 39740572 (Washington University School of Medicine)

Target: T1, P2X purinoceptor 7 (Homo sapiens, UniProt Q99572)
T1 sequence (Q99572 whole entry): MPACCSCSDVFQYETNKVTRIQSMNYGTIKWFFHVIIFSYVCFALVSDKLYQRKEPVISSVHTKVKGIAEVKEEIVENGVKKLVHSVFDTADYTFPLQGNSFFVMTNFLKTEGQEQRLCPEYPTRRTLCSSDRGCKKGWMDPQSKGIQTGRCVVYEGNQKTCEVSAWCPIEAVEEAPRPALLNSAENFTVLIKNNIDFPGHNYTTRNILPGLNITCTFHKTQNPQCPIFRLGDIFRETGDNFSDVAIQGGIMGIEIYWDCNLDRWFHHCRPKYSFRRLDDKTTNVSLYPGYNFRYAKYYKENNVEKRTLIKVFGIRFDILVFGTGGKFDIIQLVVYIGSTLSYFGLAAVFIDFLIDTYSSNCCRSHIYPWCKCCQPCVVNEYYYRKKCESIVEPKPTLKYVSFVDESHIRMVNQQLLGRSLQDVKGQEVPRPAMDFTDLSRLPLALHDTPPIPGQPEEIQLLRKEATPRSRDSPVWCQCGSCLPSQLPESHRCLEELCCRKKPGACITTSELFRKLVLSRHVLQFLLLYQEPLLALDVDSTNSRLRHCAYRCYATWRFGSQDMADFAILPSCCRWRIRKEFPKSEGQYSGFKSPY
Experiment: Binding affinity to human P2X7 receptor expressed in HEK293 cells assessed as inhibition of BzATP-induced increase in ethidium bromide uptake by fluorescence plate reader analysis

For `O=C(NCc1cccc(C(F)(F)F)c1Cl)[C@@H]1CCC(=O)N1C/C=C/I`, the IC50 was 9.8 nM.
